In patent US12521419B2, “Use of anti-aging glycopeptides to enhance pancreatic cell health, survival and improve transplant outcome” (Protokinetix Inc., priority 2014, dated 2026):

Legend:
human islets [1] = test: Intra-islet calcium concentration; type: cell-based; details: Tac−, Tac+AAGP groups
Experimental: Various electrophysiology studies were performed on human islets to elucidate a potential mechanism of action for the AAGP™ by characterizing the CNI-related injury and its avoidance.

human islets [2] = test: Glucose-stimulated insulin secretion (GSIS) perifusion assay; type: cell-based; details: AAGP 3 mg/mL, 24 hr culture
Experimental: Islet secretory function is assessed by monitoring in vitro insulin secretory profile during continuous glucose stimulation, as described by Cabrera et al Cell transplantation 2008;16(10):1039-1048. This in vitro perifusion assay is a modality of continuous Glucose-Stimulated Insulin Secretion (GSIS) test to stress islets in alternating normoglycemic and hyperglycemic environment to model physiological islet response. Supernatants from the perifusion assay are collected and insulin levels are determined using a commercially available ELISA kit (Insulin ELISA kit. Mercodia Inc. Pittsburgh, PA, USA). Results are expressed as fold-change of insulin secretion compared to the low (2.8 mMol) glucose stimulation baseline, normalized for 100 IEQ.

human islet cells [3] = test: Protection of human islets from tacrolimus toxicity (Example 2); type: cell-based; details: AAGP 3 mg/mL
Experimental: Research-grade human islet preparations are cultured for 48 hours in the following groups: • 1) No tacrolimus (Tac−) treated beta islet cells; • 2) Tracrolimus (Tac+) treated beta islet cells; and • 3) Tacrolimus (Tac+) treated+AAGP™ supplementation beta islet cells.
After 48 h, tacrolimus ([…]) was added to group 2 and 3.
(§1) Islets are cultured in humidified atmosphere of 95% air and 5% CO2 at 37° C., at a density of 200 IE/mL using standard tissue culture flask. AAGP™ concentration is 3 mg/mL. Several tests are conducted on D1 post-islet isolation, including: Islet recovery, membrane integrity viability stain (Syto EB) as well as Glucose-stimulated Insulin Release.

[4] = system: syngeneic islet transplant; test: Syngeneic full mass islet transplant with continuous tacrolimus treatment; type: in vivo, mouse; details: AAGP in culture media 1 hour prior to transplant; tacrolimus 1 mg/kg/day by osmotic pump
Description: FIG. 11 illustrates the post-transplant graft function in immunodefficient mice receiving minimal human islet mass (˜1000 IEQ). Islets were previously treated with AAGP™ and tracrolimus accordingly. […] The dotted line indicates graft recovery nephrectomy on day 60. B. Intraperitoneal glucose tolerance test (IPGTT) to evaluate metabolic response after receiving a glucose bolus. C. Insulin content of removed grafts after 60 days of transplant as an indication of residual islet mass. Data points represent mean±SEM adjusted per gram of tissue, (Tac− n=6, Tac+ n=3 and Tac+AAGP™ n=7), *p<0.05, **p<0.01 and ***p<0.001. D and E. Post-transplant graft function in mice receiving syngeneic full mass (˜500 IEQ) islet transplant. AAGP™ was added to the culture media 1 hour prior to transplant and tacrolimus was administered via a subcutaneous osmotic pump (implanted during the same procedure) at a continuous rate of 1 mg/kg/day. D. Pooled blood glucose profiles of animal over 40 days with clear dysfunction for Tac+ islets during the presence of Tac. Vertical dotted line indicates tacrolimus treatment cessation and marks a gradual recovery of Tac+ grafts. Horizontal continuous line at y=11 indicates the normoglycemia limit. Graft recovery nephrectomy was again performed on day 30. E. Mean time-to-euglycemia after transplant showing Tac+AAGP™ mice reversing diabetes earlier (p<0.001, log-rank, Mantel-cox test). […] These differences were not observed in the Tac+AAGP™ group.
To further support these findings a transplant experiment was performed in a syngeneic diabetic mouse transplant model with continuous treatment with tacrolimus to resemble clinical practice.
To make our experiments more clinically relevant, a new in vivo syngeneic mouse transplant model was performed, with tacrolimus as a continuous treatment by means of a subcutaneous osmotic pump. It was observed that the functional impairment of transplanted islets occurred immediately after starting administration of the CNI and lasted during the entire treatment period (7 days).

mouse splenocytes = test: Allogeneic mixed lymphocyte reaction, T cell proliferation by CFSE staining; type: cell-based; details: vs IgG control, n=4
Description: The assay measures T cell proliferative response by levels of CFSE staining.

human islet cells [5] = test: Initial characterization of human islets cultured 24 hours (Example 1); type: cell-based; details: AAGP 3 mg/mL
Experimental: Research-grade human islet preparations are cultured for 24 hours in the following groups: • 1) AAGP™ supplemented islets cells; and • 2) Controls (non-supplemented islets cells).
as §1, with “flask. The” for “flask.”, “day 1” for “D1”, “(Syto®” for “(Syto”, “Glucose-Stimulated” for “Glucose-stimulated”

[6] = Solubility and stability of AAGP in media; type: physicochemical
human islets [7] = test: Extracellular ROS in culture media, Acridan Lumigen PS-3 assay; type: cell-based; details: media 24 hr after tacrolimus exposure, ± AAGP
Experimental: Frozen samples from all groups are utilized to determine reactive oxygen species (ROS) in the culture media, using the Acridan Lumigen™ PS-3 assay (Amershan ECL Plus kit, Fisher Scientific Inc. Ottawa, ON, Canada) (18). In this assay Acridan Lumigen™ PS-3 is excited by reactive oxygen and nitrogen species (RNS) in the presence of hydrogen peroxide, producing chemiluminescense at 430 nm. Media samples are flash-frozen with liquid nitrogen and stored until the assay is performed. CMRL culture media alone is used as a control, and results are expressed as fold-change increase compared to the control media.

human islets [8] = test: Kidney subcapsular minimal mass islet transplant in Rag1 mice (Example 3); type: in vivo, immunodeficient mice (Rag1); details: ~1000 IEQ, islets cultured 24 h with AAGP 3 mg/mL, n=4 & 5
Experimental: Two research-grade human islet preparations are cultured for 24 hours in the following groups: • 1) AAGP™+ supplemented islets cells; and • 2) Control (non-supplemented islets)
Islets are cultured in humidified atmosphere of 95% air and 5% CO2 at 37° C., at a density of 200 IE/mL using standard tissue culture flask. AAGP™ concentration is 3 mg/mL. After 24 h, kidney subcapsular islet transplant is performed on immunodeficient mice (Rag1) with minimal islet mass (˜1000 IEQ) to assess transplant efficacy (n=4 & 5, control and AAGP™ respectively).

human islets [9] = test: Viability by fluorescent membrane integrity assay (syto green/ethidium bromide); type: cell-based; details: AAGP 3 mg/mL, 24 hr culture, vs non-supplemented control
Experimental: After 24 hr of culture, islets are assessed for recovery, viability and function. Recovery rate is calculated as the percentage of surviving islets after 24 hr culture in comparison to the initial count for each condition. Viability is assessed using a fluorescent membrane integrity assay with counter-stains syto green/ethidium bromide (Cedarlane Laboratories, Burlington, ON, and Sigma-Aldrich, ON) (Islet isolation for clinical transplantation. In: Shahidul. M, (ed). The islets of Langerhans. New York: Springer, 2010; Ranuncoli A, et al. Cell transplantation 2000; 9(3):409-414; Ricordi C. et al. Acta diabetologica latina 1990; 27(3):185-195; and Barnett M J et al. Cell transplantation 2004; 13(5):481-488).

C[C@H](NC(=O)[C@H](C)NC(=O)[C@@H](N)CCCCNC(=O)C(F)(F)C1(O)O[C@H](CO)[C@H](O)[C@H](O)[C@H]1O)C(=O)O (stereo partly shown) [AAGP™]
calcium concentration in islets (human islets [1]): neither tacrolimus nor AAGP™ affected the calcium concentration | insulin secretion during the second secretory phase (perifusion curves) (human islets [2]; vs control): significant increase in insulin secretion | GSIS perifusion area under the curve (insulin release) (human islets [2]; control 75.5±0.5): 149.5±0.5 | protection of islets exposed to tacrolimus in vitro (human islet cells [3]): protects islet exposed to tacrolimus in vitro | graft function / period to achieve euglycemia [4]: period to achieve euglycemia was similar to the control group | T cell proliferation (CD8+ and CD4+) (mouse splenocytes): no significant decrease in proliferation of T cells | toxicity on human islet cells (human islet cells [5]): no toxicity | islet survival in culture (human islet cells [5]; 24 hours): seems to enhance islet survival in culture | solubility ([6]; all media): highly soluble in all media | stability ([6]; compared to natural AFP): more stable | extracellular ROS (fold-increase vs control media) (human islets [7]): ameliorated | transplant outcome with minimal islet mass (human islets [8]): inconclusive | cellular viability per membrane integrity assay (human islets [9]): no differences in cellular viability
